# Reference: PMC9814792 (Communications Chemistry, 2022)
# What was measured:
# [1] = test system: HCT116 and HCT116/OxR cells; experiment: Cellular GSH content (GSH/GSSG-Glo); format: cell-based, human; conditions: 24 h exposure, single agent
# Protocol: GSH levels in HCT116 and HCT116/OxR cells (7.5 × 10^4 cells per well in 96-well plates, in triplicate), or in CT26 tumor tissues (25–50 mg/sample) were determined using the luminescence-based detection system GSH/GSSG-Glo^TM assay (Promega, Madison, WI) following the manufacturer’s recommendations. Quantifications are based on the comparison with a GSH standard curve delivered in the assay and normalized to the total protein content of the samples determined by the Micro BCA^TM protein assay kit (Thermo Scientific).
# [2] = test system: HCT116 and HCT116/OxR cells; experiment: In vitro platinum cell uptake by ICP-MS; format: cell-based, human; conditions: 3 h exposure
# Protocol: Cells were seeded at 1.5 ×10^5 cells/well in six-well plates in 1.5 mL and after 24 h recovery treated with 500 µL of compounds at the indicated concentrations in triplicates. After 3 h drug exposure, cells were detached, washed twice with phosphate-buffered saline (PBS), dried at RT for 15 min and lysed in 100 µL HNO3 (69%, Rotipuran Supra, Carl Roth, Karlsruhe, Germany) for 1 h at RT. The lysate was added to fresh tubes containing 200 µL ddH2O. ICP-MS measurements were performed with an Agilent 8800 ICP-MS/MS instrument (Agilent Technologies, Tokyo, Japan). The sample introduction system consisted of a MicroMist nebulizer (200 μL min^−1 nominal sample uptake) and a quartz double-pass spray chamber. The instrument was tuned on a daily basis in order to achieve maximum sensitivity, low oxide formation, and low doubly charged ratios. Platinum was monitored in no gas mode with an integration time of 0.3 s. The flow injection measurements were performed with a bioinert HPLC 1260 (Agilent Technologies, Waldbronn, Germany), which was directly connected to the nebulizer of the ICP-MS/MS instrument with a PEEK tubing. The following chromatographic conditions were used: injection volume: 10 µL; flow rate: 0.30 mL min^-1; isocratic elution; CH3COONH4 (50 mM, pH = 6.8) aqueous solution was employed as mobile phase. The data were recorded and evaluated with the Agilent MassHunter Chromatography software package, MassHunter 4.6., 2019.
# [3] = test system: HCT116, HCT116/OxR, A2780, A2780/Cis cells; experiment: 72 h cell viability (MTT) assay, all malignant cell models; format: cell-based, human
# Protocol: (§1) Cells were seeded (3–4 ×10^3 cells/well) in 96-well plates in 100 µL and after 24 h recovery treated with 100 µL of compounds at the indicated concentrations in triplicates. After 72 h drug exposure cell viability was determined by 3-(4,5-dimethylthiazol-2-yl)-2,5-diphenyltetrazolium bromide (MTT)-vitality assay (EZ4U, Biomedica, Vienna, Austria) following the manufacturer’s recommendations, as published. Absorbance was measured at 450 nm (at 620 nm as reference) using the multimode plate reader Tecan Infinite 200 Pro (Zurich, Switzerland). Cytotoxicity was expressed as IC50 values calculated from full dose-response curves using the 4 parameter nonlinear regression model of GraphPad Prism 8 software (La Jolla, CA, USA).
# [4] = Aqueous stability in phosphate buffer by UHPLC; format: physicochemical; conditions: for UHPLC peak integral, stability: method A
# Protocol: (§2) For stability measurements BSO-OxOAc (1 mM) was dissolved in phosphate buffer (100 mM, pH 7.4). For reduction experiments BSO-OxOAc (2 mM) was dissolved in phosphate buffer (500 mM, pH 7.4). A 20 mM solution of AA in the same buffer was added in a 1:1 ratio. The samples were immediately measured on a Dionex UltiMate 3000 RS UHPLC system equipped with a Waters Acquity UPLC® BEH C18 column (3×50 mm, pore size 1.7 µm), and absorption detection at 230 nm with incubation at 20 °C (Gradients: Method A: 0.0−0.5 min: 5% eluent B in eluent A; 0.5–5.5 min: 5-95% eluent B; 5.5–8.0 min: 95 % eluent B (eluent A = 0.1% formic acid in water, eluent B = 0.1 % formic acid in acetonitrile), method B: 0.0 − 0.5 min: 5% eluent B in eluent A; 0.5–5.5 min: 5-95% eluent B; 5.5–7.1 min: 95 % eluent B (eluent A = 0.1% formic acid in water, eluent B = 0.1 % formic acid in methanol). Data points were taken every 30 min for 6 h and at 24 h and 24.5 h.
# [5] = biological target: T1, albumin (Bos taurus, UniProt P02769); experiment: Albumin binding in fetal calf serum by SEC-ICP-MS; format: in vitro ADME; conditions: fetal calf serum 37 °C, 100 μM
# T1 construct: tissue Sigma-Aldrich; host or cells: fetal calf serum
# Protocol: Fetal calf serum was purchased from Sigma-Aldrich and buffered with 150 mM phosphate buffer (pH 7.4) to guarantee a stable pH. The platinum(IV) complexes were dissolved in 150 mM phosphate buffer (pH 7.4) to 1 mM and diluted 1:10 in serum to obtain a final concentration of 100 μM. The samples were then incubated in the autosampler at 37 °C for 24 h and analyzed at 0 h, 1 h, 4 h, and 24 h. Between each sample, a pure water blank was measured. For SEC-ICP-MS measurements, an Agilent 1260 Infinity system coupled to an Agilent 7800 ICP-MS equipped with a dynamic reaction cell was used. Oxygen (purity 5.5, Messer AustriaGmbH, Gumpoldskirchen, Austria) was used as reaction gas at 30% and 0.9 L/min flow.
# [6] = test system: F331, BEC, HaCat cells; experiment: 72 h cell viability (MTT) assay, non-malignant cell types; format: cell-based, human
# Protocol: as §1
# [7] = test system: HCT116 cells; experiment: 72 h cell viability (MTT) assay; format: cell-based, human; conditions: HCT116, 72 h continuous exposure; read-out: IC50 value (95% confidence interval)
# Protocol: as §1
# [8] = test system: A2780/Cis cells; experiment: 72 h cell viability (MTT) assay; format: cell-based, human
# Protocol: as §1
# [9] = test system: A2780 cells; experiment: 72 h cell viability (MTT) assay; format: cell-based, human; conditions: A2780, 72 h continuous exposure; read-out: IC50 value (95% confidence interval)
# Protocol: as §1
# [10] = Reduction kinetics with 10-fold excess of ascorbic acid by UHPLC; format: physicochemical; conditions: 10 mM AA; for UHPLC peak integral, reduction: method B
# Protocol: as §2
# [11] = test system: CT26 cells; experiment: 72 h cell viability (MTT) assay; format: cell-based, murine; conditions: CT26, 72 h
# Protocol: as §1
# T1 sequence (P02769 25-607): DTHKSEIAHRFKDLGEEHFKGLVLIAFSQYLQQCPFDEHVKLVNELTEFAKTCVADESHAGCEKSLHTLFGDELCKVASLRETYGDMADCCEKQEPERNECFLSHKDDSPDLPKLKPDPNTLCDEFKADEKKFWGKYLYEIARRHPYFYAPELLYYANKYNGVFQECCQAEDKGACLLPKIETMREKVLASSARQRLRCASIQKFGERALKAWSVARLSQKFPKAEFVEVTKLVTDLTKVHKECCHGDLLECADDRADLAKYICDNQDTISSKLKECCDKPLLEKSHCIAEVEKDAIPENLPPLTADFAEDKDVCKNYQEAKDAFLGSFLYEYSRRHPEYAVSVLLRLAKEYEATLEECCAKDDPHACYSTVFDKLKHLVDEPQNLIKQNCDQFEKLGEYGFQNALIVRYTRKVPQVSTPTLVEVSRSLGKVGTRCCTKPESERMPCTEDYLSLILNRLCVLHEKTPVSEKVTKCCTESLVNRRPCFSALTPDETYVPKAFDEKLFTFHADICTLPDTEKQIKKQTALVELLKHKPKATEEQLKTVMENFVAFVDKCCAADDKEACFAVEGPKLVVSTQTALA
compound,measurement,setting,value
"CCCCS(=N)(=O)CCC(NC(=O)[O][Pt]1([O]C(C)=O)[O]C(=O)C(=O)[O]1)C(=O)O.NC1CCCCC1N (mixture of isomers) [BSO-OxOAc, (OC-6-34)-Acetato(((1 S)-3-(butylsulfonimidoyl)-1-carboxypropyl)carbamato)((1 R,2 R)-1,2-cyclohexanediamino)oxalatoplatinum(IV)]",impact on cellular GSH content,[1],moderately
same,intracellular accumulation in HCT116/OxR as compared to parental HCT116,[2],only non-significantly altered
same,overall cellular platinum accumulation compared between compounds,[2]; both cell models,distinctly lower than of oxaliplatin
same,enhancement of IC50 values as compared to oxaliplatin,[3],10- to 50 fold
same,"calculated half-life, aqueous stability","[4]; 1 mM, 100 mM phosphate buffer pH 7.4, 20 °C",~ 240 h
same,"UHPLC peak integral, stability","[4]; t=0, 1 mM",70.47 mAU
same,"UHPLC peak integral, stability","[4]; t=24 h, 1 mM",66.25 mAU
same,bound to albumin fraction,[5]; t 0 h,0%
same,free (low molecular weight fraction),[5]; t 0 h,100%
same,bound to albumin fraction,[5]; t 1 h,0%
same,free (low molecular weight fraction),[5]; t 1 h,100%
same,bound to albumin fraction,[5]; t 4 h,0%
same,free (low molecular weight fraction),[5]; t 4 h,100%
same,bound to albumin fraction,[5]; t 24 h,0%
same,free (low molecular weight fraction),[5]; t 24 h,100%
same,activity against non-malignant cell types,[6],widely inactive
same,IC50,[7],32.1 µM
same,IC50,"[8]; A2780/Cis, 72 h continuous exposure, read-out: IC50 value (95% confidence interval)",28.5 µM
same,resistance factor,[8]; IC50 A2780/Cis divided by IC50 A2780,1.4
same,IC50,[9],20.6 µM
same,t½ reduction kinetics,"[10]; 1 mM complex, 500 mM phosphate buffer pH 7.4, 20 °C",~ 51 h
same,"UHPLC peak integral, reduction","[10]; t=0, 1 mM",11.87 mAU
same,"UHPLC peak integral, reduction","[10]; t=24 h, 1 mM",9.1 mAU
same,higher IC50 value as compared to oxaliplatin,[11],> 58 fold
